# Columns and labels:
# VRE NCTC12201 = assay: In vitro infectivity assay (MIC), broth dilution, Exp. Ex. 1-1; type: cell-based, enterococci; details: Enterococcus; VRE NCTC12201; Mueller-Hinton broth, 35° C., 24 hours; read-out: MIC VRE NCTC12201
# Experimental: (§1) The antibacterial activities were measured based on broth dilution techniques of international standards (Clinical Laboratory Standards Institute: CLSI). The activities were shown by minimum inhibitory concentrations (MICs) determined by inoculating the above-mentioned strains at a concentration of about 10^5 […] into Mueller-Hinton broth (manufactured by Difco) containing 0.85% NaCl in 96-well microplates and incubating the plates at 35° C. for 24 hours. Measurement was carried out three times.
# (§2) The antibacterial activities of the compounds of the present invention against various strains such as methicillin-resistant Staphylococcus aureus (MRSA), vancomycin intermediate-resistant Staphylococcus aureus (VISA), methicillin-sensitive Staphylococcus aureus (MSSA), and vancomycin-resistant enterococci (VRE) were examined. Of the bacteria used in MIC measurement in this test example, clinical bacteria of MRSA (OM481 strain and OM584 strain) were supplied from Okayama University Hospital (Japan). An MRSA strain N315, a vancomycin intermediate-resistant Staphylococcus aureus (VISA) strain Mu50, and a methicillin-sensitive Staphylococcus aureus (MSSA) strain FDA 209P were used as controls. Vancomycin-resistant enterococcus (VRE) strains NCTC 12201 and FN-1 were supplied from the National Institute of Infectious Disease (Japan).
# VRE FN-1 = assay: as above; type: cell-based, enterococci; details: Enterococcus; VRE FN-1; Mueller-Hinton broth, 35° C., 24 hours; read-out: MIC VRE FN-1
# Experimental: as §1, §2
# [1] = target: T1, DNA gyrase of Escherichia coli (Escherichia coli, UniProt P0AES4+P0AES6); assay: DNA gyrase inhibition (supercoiling assay kit), Exp. Ex. 1-2; type: biochemical; details: E. coli DNA gyrase supercoiling, relaxed pBR322, 37° C., 30 minutes; read-out: Gyrase inhibitory activity IC50 (converted)
# T1 construct: purchased John Innes Enterprises #K0001
# Experimental: As a kit for measurement of DNA gyrase of Escherichia coli, a product purchased from John Innes Enterprises (Gyrase Supercoiling assay kit #K0001) was used. Relaxed DNA was modified with gyrase into supercoiled DNA, and reaction products were separated by electrophoresis depending on the sizes of the molecular weights to examine anti-gyrase effects (IC50). One unit (1 U) of DNA gyrase and […] of relaxed pBR322 DNA were added to […] of the reaction solution, and the mixture was allowed to react at 37° C. for 30 minutes in the presence of 35 mM Tris-HCl (pH 7.5), 24 mM KCl, 4 mM MgCl2, 2 mM DTT, 1.8 mM spermidine, 1 mM ATP, 6.5% (w/v) glycerol, and 0.1 mg/ml BSA. The reactions were stopped using […] of a reaction stop solution (40% sucrose, 100 mM Tris-HCl (pH 7.5), 1 mM EDTA, 0.5 mg/ml bromophenol blue).
# MRSA OM481 = assay: In vitro infectivity assay (MIC), broth dilution, Exp. Ex. 1-1; type: cell-based, Staphylococcus aureus; details: Staphylococcus aureus; MRSA OM481; Mueller-Hinton broth, 35° C., 24 hours; read-out: MIC MRSA OM481
# Experimental: as §1, §2
# VISA Mu50 = assay: as above; type: cell-based, Staphylococcus aureus; details: Staphylococcus aureus; VISA Mu50; Mueller-Hinton broth, 35° C., 24 hours; read-out: MIC VISA Mu50
# Experimental: as §1, §2
# MRSA OM58 = assay: as above; type: cell-based, Staphylococcus aureus; details: Staphylococcus aureus; MRSA OM58; Mueller-Hinton broth, 35° C., 24 hours; read-out: MIC MRSA OM58
# Experimental: as §1, §2
# MSSA FDA 209P = assay: as above; type: cell-based, Staphylococcus aureus; details: Staphylococcus aureus; MSSA FDA 209P; Mueller-Hinton broth, 35° C., 24 hours; read-out: MIC MSS 209P
# Experimental: as §1, §2
# MRSA N315 = assay: as above; type: cell-based, Staphylococcus aureus; details: Staphylococcus aureus; MRSA N315; Mueller-Hinton broth, 35° C., 24 hours; read-out: MIC MRSA N315
# Experimental: as §1, §2
# Escherichia coli K-12 = assay: Antibacterial activity (MIC) against Gram-negative strains, microdilution; type: cell-based; details: K12, MIC after 24 h, read-out: MIC (Gram-nagative) K-12
# Procedure, shortened: (§3)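 CLSI broth microdilution in Mueller-Hinton broth with 0.85% NaCl, inoculum about 10^5 […]. Incubated 35° C for 24 hours; MIC taken as the minimum inhibitory concentration, measured three times.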
# [2] = system: Pseodomonas aeruginosa PAOI; assay: as above; type: cell-based; details: MIC after 24 h, read-out: MIC (Gram-nagative) PAO1
# Procedure, shortened: as §3
# [3] = system: Methicillin-resistant S. aureus OM481; assay: In vitro infectivity assay (MIC), Exp. Ex. 2-1; type: cell-based, Staphylococcus aureus; details: Staphylococcus aureus, MRSA; Gram-positive; microdilution, MIC after 24 h; read-out: MIC MRSA OM481
# Procedure, shortened: (§4)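 CLSI broth microdilution in Mueller-Hinton broth with 0.85% NaCl, inoculum about 10^5 CUF/[…]. MIC read after 24 h at 35° C; each determination run three times.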
# [4] = system: Methicillin sensitive S. aureus 209P; assay: In vitro infectivity assay (MIC), Exp. Ex. 2-1; type: cell-based, Staphylococcus aureus; details: Staphylococcus aureus, 209P / MSSA; Gram-positive; microdilution, MIC after 24 h; read-out: MIC MSSA 209P
# Procedure, shortened: as §4
# [5] = system: Methicillin-resistant S. aureus N315; assay: In vitro infectivity assay (MIC), Exp. Ex. 2-1; type: cell-based, Staphylococcus aureus; details: Staphylococcus aureus, MRSA; Gram-positive; microdilution, MIC after 24 h; read-out: MIC MRSA N315
# Procedure, shortened: as §4
# [6] = system: Methicillin-resistant S. aureus OM584; assay: In vitro infectivity assay (MIC), Exp. Ex. 2-1; type: cell-based, Staphylococcus aureus; details: Staphylococcus aureus, MRSA; Gram-positive; microdilution, MIC after 24 h; read-out: MIC MRSA OM584
# Procedure, shortened: as §4
# [7] = system: Methicillin-resistant S. aureus COL; assay: In vitro infectivity assay (MIC), Exp. Ex. 2-1; type: cell-based, Staphylococcus aureus; details: Staphylococcus aureus, MRSA; Gram-positive; microdilution, MIC after 24 h
# [8] = system: Streptococcus pneumoniae R6; assay: In vitro infectivity assay (MIC), Exp. Ex. 2-1; type: cell-based; details: Streptococcus pneumoniae, R6; Gram-positive; microdilution, MIC after 24 h; read-out: MIC S. Pneumoniae R6
# [9] = target: T2, Staphylococcus aureus Topoisomerase IV (Staphylococcus aureus, UniProt P0C1S7+P0C1U9); assay: Topoisomerase IV inhibition (decatenation kit), Exp. Ex. 2-3; type: biochemical
# T2 construct: purchased John Innes Enterprises
# Procedure, shortened: (§5)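 Decatenation of 200 ng kinetoplast DNA by 1 unit enzyme, 30 min at 37 °C. S. aureus: 50 mM Tris-HCl pH 7.5, 350 mM potassium glutamate, 1.5 mM ATP; E. coli: 50 mM HEPES-KOH pH 7.6, 100 mM potassium glutamate, 1 mM ATP. Products resolved on 1.0% agarose in TAE.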
# [10] = target: T3, Escherichia coli Topoisomerase IV (Escherichia coli, UniProt P0AFI2+P20083); assay: as above; type: biochemical; details: decatenation of kDNA, 37° C., 30 minutes; read-out: IC50 (E. coli topoisomerase IV inhibitions)
# T3 construct: purchased John Innes Enterprises
# Procedure, shortened: as §5
# E. coli DNA gyrase = target: T4, E. coli DNA gyrase (Escherichia coli, UniProt P0AES4+P0AES6); assay: DNA gyrase inhibition (supercoiling kit), Exp. Ex. 2-2; type: biochemical
# T4 construct: purchased John Innes Enterprises #K0001
# Procedure, shortened: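 IC50 derived from gel electrophoresis separating supercoiled from relaxed DNA. Reactions ran 30 minutes at 37° C with 1 U gyrase, […] relaxed pBR322, 1 mM ATP and 4 mM MgCl2 in Tris-HCl buffer (pH 7.5), then stopped with EDTA-containing solution.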
# [11] = system: Vancomycin intermediate-resistant Staphylococcus aureus Mu50; assay: In vitro infectivity assay (MIC), Exp. Ex. 2-1; type: cell-based; details: Staphylococcus aureus, VISA; Gram-positive; microdilution, MIC after 24 h; read-out: MIC VISA Mu50
# Procedure, shortened: as §4
# [12] = system: Vancomycin-resistant enterococci NCTC 12201; assay: In vitro infectivity assay (MIC), Exp. Ex. 2-1; type: cell-based; details: Enterococcus, NCTC 12201 / VRE; Gram-positive; microdilution, MIC after 24 h; read-out: MIC VRE NCTC 12201
# Procedure, shortened: as §4
# [13] = system: Vancomycin-resistant enterococci FN-1; assay: In vitro infectivity assay (MIC), Exp. Ex. 2-1; type: cell-based; details: Enterococcus, VRE; Gram-positive; microdilution, MIC after 24 h; read-out: MIC VRE FN-1
# Procedure, shortened: as §4
# T1 sequence (P0AES4 whole entry, one chain of several): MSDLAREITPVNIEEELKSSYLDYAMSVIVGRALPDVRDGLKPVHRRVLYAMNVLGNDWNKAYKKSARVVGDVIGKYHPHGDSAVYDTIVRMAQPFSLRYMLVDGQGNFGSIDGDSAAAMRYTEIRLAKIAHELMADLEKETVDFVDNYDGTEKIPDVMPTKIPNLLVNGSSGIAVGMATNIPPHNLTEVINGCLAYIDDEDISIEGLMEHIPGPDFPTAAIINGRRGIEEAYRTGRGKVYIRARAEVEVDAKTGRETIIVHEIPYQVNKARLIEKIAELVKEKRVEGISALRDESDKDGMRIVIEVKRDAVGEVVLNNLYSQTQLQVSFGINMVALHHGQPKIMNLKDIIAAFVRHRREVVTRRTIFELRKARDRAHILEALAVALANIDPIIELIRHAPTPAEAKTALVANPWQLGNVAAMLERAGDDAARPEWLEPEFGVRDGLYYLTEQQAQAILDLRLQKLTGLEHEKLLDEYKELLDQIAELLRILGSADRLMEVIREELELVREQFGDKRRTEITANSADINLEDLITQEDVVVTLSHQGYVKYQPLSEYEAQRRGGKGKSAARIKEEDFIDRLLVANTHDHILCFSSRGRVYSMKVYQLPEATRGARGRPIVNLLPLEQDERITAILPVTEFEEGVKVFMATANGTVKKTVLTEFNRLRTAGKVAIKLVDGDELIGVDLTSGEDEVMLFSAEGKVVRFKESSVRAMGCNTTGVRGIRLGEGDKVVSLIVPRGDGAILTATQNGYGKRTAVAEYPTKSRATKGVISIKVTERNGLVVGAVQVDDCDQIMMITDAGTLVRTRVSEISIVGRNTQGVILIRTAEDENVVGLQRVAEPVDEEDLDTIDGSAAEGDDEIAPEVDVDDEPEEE
# T4 sequence (P0AES4 whole entry, one chain of several): as above
# T2 sequence (P0C1U9 whole entry): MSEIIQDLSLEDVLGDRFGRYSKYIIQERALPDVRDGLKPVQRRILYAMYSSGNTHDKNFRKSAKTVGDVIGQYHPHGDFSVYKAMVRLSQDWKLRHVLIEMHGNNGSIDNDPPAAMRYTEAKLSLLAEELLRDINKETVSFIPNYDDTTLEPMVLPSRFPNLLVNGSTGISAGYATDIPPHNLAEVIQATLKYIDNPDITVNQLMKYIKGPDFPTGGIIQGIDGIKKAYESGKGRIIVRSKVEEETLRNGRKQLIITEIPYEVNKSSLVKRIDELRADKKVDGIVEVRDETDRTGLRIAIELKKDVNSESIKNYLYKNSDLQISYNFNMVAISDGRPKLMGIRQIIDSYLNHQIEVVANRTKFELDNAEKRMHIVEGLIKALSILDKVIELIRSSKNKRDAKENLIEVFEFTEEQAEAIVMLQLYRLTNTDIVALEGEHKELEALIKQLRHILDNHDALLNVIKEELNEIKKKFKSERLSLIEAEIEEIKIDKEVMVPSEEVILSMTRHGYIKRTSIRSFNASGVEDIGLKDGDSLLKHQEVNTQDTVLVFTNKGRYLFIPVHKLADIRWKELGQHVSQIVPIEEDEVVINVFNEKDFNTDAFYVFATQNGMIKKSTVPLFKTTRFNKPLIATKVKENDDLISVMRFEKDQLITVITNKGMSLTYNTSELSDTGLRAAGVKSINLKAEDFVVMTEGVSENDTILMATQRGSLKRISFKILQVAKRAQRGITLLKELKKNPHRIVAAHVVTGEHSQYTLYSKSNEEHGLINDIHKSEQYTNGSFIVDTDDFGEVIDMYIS
# T2 sequence (P0C1S7 whole entry): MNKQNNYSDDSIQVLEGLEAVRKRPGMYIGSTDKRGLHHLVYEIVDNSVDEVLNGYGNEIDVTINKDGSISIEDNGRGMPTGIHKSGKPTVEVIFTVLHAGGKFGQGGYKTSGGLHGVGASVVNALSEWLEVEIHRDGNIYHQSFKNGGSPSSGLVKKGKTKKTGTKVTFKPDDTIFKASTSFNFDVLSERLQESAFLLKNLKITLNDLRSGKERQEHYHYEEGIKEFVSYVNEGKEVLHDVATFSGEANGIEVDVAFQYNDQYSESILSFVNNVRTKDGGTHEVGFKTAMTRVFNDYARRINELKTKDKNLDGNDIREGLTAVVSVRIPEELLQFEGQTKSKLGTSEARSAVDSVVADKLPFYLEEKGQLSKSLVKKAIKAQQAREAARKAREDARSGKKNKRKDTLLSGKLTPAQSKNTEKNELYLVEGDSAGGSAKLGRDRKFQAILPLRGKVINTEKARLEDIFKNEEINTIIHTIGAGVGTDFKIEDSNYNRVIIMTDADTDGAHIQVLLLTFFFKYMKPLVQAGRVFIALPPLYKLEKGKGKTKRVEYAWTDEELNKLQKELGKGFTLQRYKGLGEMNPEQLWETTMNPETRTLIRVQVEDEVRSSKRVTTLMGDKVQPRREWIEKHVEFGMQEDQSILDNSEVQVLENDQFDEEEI
# T3 sequence (P20083 whole entry): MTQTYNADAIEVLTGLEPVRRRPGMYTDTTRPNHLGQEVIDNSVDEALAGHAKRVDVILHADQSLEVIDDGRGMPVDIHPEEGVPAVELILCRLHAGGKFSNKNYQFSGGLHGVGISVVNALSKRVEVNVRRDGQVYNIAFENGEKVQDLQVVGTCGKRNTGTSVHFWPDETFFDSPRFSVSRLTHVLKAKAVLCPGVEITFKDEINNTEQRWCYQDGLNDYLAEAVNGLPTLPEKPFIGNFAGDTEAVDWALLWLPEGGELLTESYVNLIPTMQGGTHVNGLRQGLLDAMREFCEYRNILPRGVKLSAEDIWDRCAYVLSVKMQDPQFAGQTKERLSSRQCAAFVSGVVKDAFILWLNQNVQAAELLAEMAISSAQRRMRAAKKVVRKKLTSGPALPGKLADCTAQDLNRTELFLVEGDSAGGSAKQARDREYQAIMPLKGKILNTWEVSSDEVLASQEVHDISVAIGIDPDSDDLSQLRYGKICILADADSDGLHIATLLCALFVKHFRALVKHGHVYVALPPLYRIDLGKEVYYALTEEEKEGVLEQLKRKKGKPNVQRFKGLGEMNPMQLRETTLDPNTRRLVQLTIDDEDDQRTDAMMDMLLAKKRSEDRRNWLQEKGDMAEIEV
# T3 sequence (P0AFI2 whole entry): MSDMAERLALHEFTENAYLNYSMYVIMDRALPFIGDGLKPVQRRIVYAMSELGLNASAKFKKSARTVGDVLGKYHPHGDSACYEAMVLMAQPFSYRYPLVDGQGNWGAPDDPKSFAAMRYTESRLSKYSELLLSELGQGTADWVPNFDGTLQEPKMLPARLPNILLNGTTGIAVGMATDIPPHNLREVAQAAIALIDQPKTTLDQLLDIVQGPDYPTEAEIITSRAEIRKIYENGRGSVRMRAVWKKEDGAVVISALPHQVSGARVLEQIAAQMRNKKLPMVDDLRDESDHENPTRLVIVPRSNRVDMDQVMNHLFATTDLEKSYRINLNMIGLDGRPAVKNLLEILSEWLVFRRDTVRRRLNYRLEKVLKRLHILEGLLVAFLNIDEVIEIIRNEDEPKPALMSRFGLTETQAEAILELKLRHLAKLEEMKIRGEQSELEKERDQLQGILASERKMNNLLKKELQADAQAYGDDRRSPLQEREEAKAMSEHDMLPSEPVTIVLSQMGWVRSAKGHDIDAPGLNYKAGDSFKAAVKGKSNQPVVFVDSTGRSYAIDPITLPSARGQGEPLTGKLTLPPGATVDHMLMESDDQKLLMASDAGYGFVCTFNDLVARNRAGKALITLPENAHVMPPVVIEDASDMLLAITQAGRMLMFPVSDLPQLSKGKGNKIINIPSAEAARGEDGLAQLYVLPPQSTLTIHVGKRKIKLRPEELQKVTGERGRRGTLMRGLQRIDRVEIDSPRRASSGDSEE
SMILES,MIC (VRE NCTC12201) [µg/mL],MIC (VRE FN-1) [µg/mL],IC50 [1] [µM],melting point [°C],MIC (MRSA OM481) [µg/mL],MIC (VISA Mu50) [µg/mL],MIC (MRSA OM58) [µg/mL],MIC (MSSA FDA 209P) [µg/mL],MIC (MRSA N315) [µg/mL],also measured
"CCCc1ccc(C(=O)O[C@H]2[C@H](Oc3c(-c4ccc(O)c(O)c4)oc4cc(O)cc(O)c4c3=O)O[C@H](CO)[C@@H](O)[C@@H]2OC(=O)c2ccc(CCC)cc2)cc1 [Compound 15f, 2-(3′,4′-Dihydroxy)-5,7-dihydroxy-3-β-D-(2″,3″-di-p-propylbenzoyloxy)glucosyl-4H-chromen-4-one]",8,8,13.2,152 to 153,32,16,32,8,8,–
"CCOc1ccc(C(=O)OC[C@H]2O[C@@H](Oc3c(-c4ccc(O)c(O)c4)oc4cc(O)cc(O)c4c3=O)[C@H](OC(=O)c3ccc(OCC)cc3)[C@@H](O)[C@H]2O)cc1 [Compound 14a, 2-(3″,4″-Dihydroxyphenyl)-5,7-dihydroxy-3-β-D-[2″,6″-di-O-(4-ethoxybenzoyl)]galactosyl-4H-chromen-4-one]",–,–,–,108 to 110,–,–,–,–,–,MIC (Escherichia coli K-12): > 128 µg/mL; MIC [2]: > 128 µg/mL; MIC [3]: 4 µg/mL; MIC [4]: 4 µg/mL; MIC [5]: 8 µg/mL; MIC [6]: 4 µg/mL; MIC [7]: 16 µg/mL; MIC [8]: 4 µg/mL; IC50 [9]: 1.78 µM; IC50 [10]: 7.33 µM; IC50 (E. coli DNA gyrase): 0.43 µM; MIC [11]: 4 µg/mL; MIC [12]: 8 µg/mL; MIC [13]: 8 µg/mL
"CC(=O)OC[C@H]1O[C@@H](Oc2c(-c3ccc(O)c(O)c3)oc3cc(O)cc(O)c3c2=O)[C@H](OC(C)=O)[C@@H](OC(C)=O)[C@@H]1OC(C)=O [Compound 16, 2-(3′4′-Dihydroxy)-5,7-dihydroxy-3-β-D-tetraacetylglucosyl-4H-chromen-4-one]",> 128,> 128,> 19,109 to 110,128,> 128,128,128,128,–
